Columns and labels:
Type in all cases: cell-based
HCC1428-LTED cells [1] = test: FACS analysis of CD44 expression on the cell surface after ELEANOR knock-down
Experimental: The maximum value in the analysis is defined as 100.
Whether the CD44 expression is changed also at the protein level was investigated. Comparative analysis of CD44 expression between HCC1428 and HCC1428-LTED cells was performed. The LNA of SEQ ID NO: 1 that suppresses ELEANOR expression and siRNA (Thermo Fisher Scientific) that suppresses CD44 expression were introduced into HCC1428-LTED cells, and the CD44 expression was analyzed by Western blotting (FIG. 5E). […] Furthermore, an ELEANOR was knocked down by introducing the LNA of SEQ ID NO: 1 into HCC1428-LTED cells, and whether the CD44 expression on the cell surface is also changed or not was analyzed by FACS.

HCC1428-LTED cells [2] = test: FACS analysis of CD44/CD24 expression (breast cancer stem cells) after LNA knock-down of ELEANOR2; settings: LNA transfected with RNAiMAX, analysis after 48 hours
Experimental: ELEANOR2 RNA which is most abundant in ELEANORS was knocked down by LNA, and CD44/CD24 expression was analyzed by FACS (FIG. 5B). The LNA below was transfected using RNAiMAX (Invitrogen), and analysis was performed after 48 hours.

CD44 mRNA = test: RT-qPCR of CD44 mRNA after suppression of ELEANOR expression by LNAs; settings: HCC1428-LTED cells, ELEANOR knock-down by LNA
Experimental: FIG. 5D is a graph showing the results of RT-qPCR analysis of expressions of ESR1 and CD44 when ELEANORS are knocked down by ELEANOR2 LNA and pa-ELEANOR LNA.
Expressions of ESR1, ELEANORS, and CD44 in the HC1428 and HC1428-LTED cells were analyzed by RT-qPCR using the primers below. In the RT-qPCR, total RNA was purified from cultured cells using NucleoSpin RNA/protein kit (MACHEREY-NAGEL) and was reverse-transcribed by ReverTra Ace qPCR RT Master Mix (TOYOBO Co., Ltd.). The RT-qPCR was performed by ABI Prism 7500 (ABI inc.) using SYBR Green.
Subsequently, the ELEANOR expression was suppressed by LNAs of SEQ ID NO: 1 and SEQ ID NO: 41 specific to ELEANORS, and whether the CD44 expression is changed or not was investigated. The expression of CD44 mRNA was decreased by knock-down of these ELEANORS (FIG. 5D).

Substance	number of CD44+ cells (HCC1428-LTED cells [1])	number of breast cancer stem cells (CD44+/CD24-/low) (HCC1428-LTED cells [2])	expression of CD44 mRNA (CD44 mRNA)
ELEANOR2-LNA: LNA that knocks down ELEANOR2 RNA, sequence TTTGGCCACATTGGAA (SEQ ID NO: 1) (LNA-modified antisense, pattern not given here)	decreased	significantly decreased	decreased
pa-ELEANOR-LNA: LNA specific to pa-ELEANOR, sequence GTGCCAGACTCCGATA (SEQ ID NO: 41) (LNA-modified antisense, pattern not given here)	–	–	decreased
